Measured values published in patent publication US8748426B2, “Inhibitors of diacylglycerol acyl transferase” (Piramal Enterprises Limited, priority 2009, dated 2014).

Target: T1, hDGAT1 (Homo sapiens, UniProt O75907)
T1 sequence (O75907 1-488): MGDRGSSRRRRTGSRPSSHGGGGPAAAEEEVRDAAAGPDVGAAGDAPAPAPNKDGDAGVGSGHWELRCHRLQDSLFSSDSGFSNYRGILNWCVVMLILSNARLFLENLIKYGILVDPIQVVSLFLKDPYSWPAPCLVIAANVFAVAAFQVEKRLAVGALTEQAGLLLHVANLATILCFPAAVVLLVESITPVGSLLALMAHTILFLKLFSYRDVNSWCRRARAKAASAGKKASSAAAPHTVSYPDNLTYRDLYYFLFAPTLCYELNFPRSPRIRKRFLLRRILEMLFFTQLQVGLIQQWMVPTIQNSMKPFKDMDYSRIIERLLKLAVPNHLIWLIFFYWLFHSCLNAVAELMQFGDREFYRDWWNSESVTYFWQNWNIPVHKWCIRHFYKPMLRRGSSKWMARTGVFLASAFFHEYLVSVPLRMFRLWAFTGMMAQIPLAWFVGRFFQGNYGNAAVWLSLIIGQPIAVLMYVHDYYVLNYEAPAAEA
Assay: In-vitro DGAT1 assay (14C oleoyl CoA, hDGAT1 microsomes from Sf9 cells)
Conditions: for inhibition at 1 µM: read-out: % Inhibition of hDGAT1; for % Inhibition of hDGAT1: at 1 μM

Row | inhibition at 1 µM [%] | % Inhibition of hDGAT1 | Molecule
1 | 10 to 50 |  | CC(C)[C@@H](C(=O)O)N1Cc2ccc(-c3ccc(NC(=O)c4cccc(C(F)(F)F)c4F)cc3)cc2C1=O [Example 194, (S)-2-(6-(4-(2-Fluoro-3-(trifluoromethyl)benzamido)phenyl)-1-oxoisoindolin-2-yl)-3-methylbutanoic acid]
2 | 10 to 50 |  | Cc1cccc(NC(=O)Nc2ccc(-c3ccc4c(c3)C(=O)N([C@H](C(=O)O)C(C)C)C4)cc2)c1 [Example 22, (S)-3-Methyl-2-(1-oxo-6-(4-(3-m-tolylureido)phenyl)isoindolin-2-yl)butanoic acid]
3 |  | ++ (>50% Inhibition) | 3-(1-Oxo-6-(4-(4-(trifluoromethyl)benzamido)phenyl)isoindolin-2-yl)cyclo hexanecarboxylic acid [Example 551]
4 | > 50 |  | O=C(Nc1ccc(-c2ccc3c(c2)C(=O)N(C2(C(=O)O)CCC2)C3)cc1)c1ccc(Cl)cc1 [Example 578, 1-(6-(4-(4-Chlorobenzamido)phenyl)-1-oxoisoindolin-2-yl)cyclobutane carboxylic acid]
5 | > 50 |  | CC(C)[C@H](C(=O)O)N1Cc2ccc(-c3ccc(NC(=O)Nc4cccc(C(F)(F)F)c4)cc3)cc2C1=O [Example 331, (R)-3-Methyl-2-(1-oxo-6-(4-(3-(3-(trifluoromethyl)phenyl)ureido)phenyl)isoindolin-2-yl)butanoic acid]
6 | 10 to 50 |  | O=C(Nc1ccc(-c2ccc3c(c2)CN([C@@H](Cc2ccccc2)C(=O)O)C3=O)cc1)Nc1cccc(C(F)(F)F)c1 [Example 382, (S)-2-(1-Oxo-5-(4-(3-(3-(trifluoromethyl)phenyl)ureido)phenyl)isoindolin-2-yl)-3-phenylpropanoic acid]
7 | > 50 |  | CC(C)[C@@H](C(=O)O)N1Cc2ccc(-c3ccc(NC(=O)Nc4ccc(C(F)(F)F)cc4)cc3)cc2C1=O [Example 36, (S)-3-Methyl-2-(1-oxo-6-(4-(3-(4-(trifluoromethyl)phenyl)ureido)phenyl)isoindolin-2-yl)butanoic acid]
8 | 10 to 50 |  | CC(C)[C@@H](C(=O)O)N1Cc2cc(-c3ccc(NC(=O)Nc4ccccc4)cc3)ccc2C1=O [Example 231, (S)-3-Methyl-2-(1-oxo-5-(4-(3-phenylureido)phenyl)isoindolin-2-yl)butanoic acid]
9 | > 50 |  | CC(C)[C@@H](C(=O)O)N1Cc2cc(-c3ccc(NC(=O)Nc4ccc(F)c(F)c4)cc3)ccc2C1=O [Example 239, (S)-2-(5-(4-(3-(3,4-Difluorophenyl)ureido)phenyl)-1-oxoisoindolin-2-yl)-3-methylbutanoic acid]
10 | 10 to 50 |  | CC(C)[C@@H](C(=O)O)N1Cc2ccc(-c3ccc(NC(=S)Nc4cccc(Cl)c4)cc3)cc2C1=O [Example 64, (S)-2-(6-(4-(3-(3-Chlorophenyl)thioureido)phenyl)-1-oxoisoindolin-2-yl)-3-methyl butanoic acid]
11 | > 50 |  | CCC(C#N)(CC)c1ccc(C(=O)Nc2ccc(-c3ccc4c(c3)C(=O)N([C@H](C(=O)O)C(C)C)C4)cc2)cc1 [Example 633, (S)-2-(6-(4-(4-(3-Cyanopentan-3-yl)benzamido)phenyl)-1-oxoisoindolin-2-yl)-3-methylbutanoic acid]
12 | > 50 |  | O=C(Nc1ccc(-c2ccc3c(c2)C(=O)N(C2(C(=O)O)CCC2)C3)cc1)c1ccc(C(F)(F)F)cc1 [Example 580, 1-(1-Oxo-6-(4-(4-(trifluoromethyl)benzamido)phenyl)isoindolin-2-yl)cyclo butane carboxylic acid]
13 | 10 to 50 |  | CC(C)[C@@H](C(=O)O)N1Cc2ccc(-c3ccc(NC(=O)Nc4ccc(F)cc4F)cc3)cc2C1=O [Example 10, (S)-2-(6-(4-(3-(2,4-Difluorophenyl)ureido)phenyl)-1-oxoisoindolin-2-yl)-3-methylbutanoic acid]
14 | > 50 |  | CC(C)[C@@H](C(=O)O)N1Cc2ccc(-c3ccc(NC(=O)c4cc(-c5ccc(F)cc5)no4)cn3)cc2C1=O [Example 639, (S)-2-(6-(5-(3-(4-Fluorophenyl)isoxazole-5-carboxamido)pyridin-2-yl)-1-oxoisoindolin-2-yl)-3-methylbutanoic acid]
15 |  | ++ (>50% Inhibition) | CC(C)[C@@H](C(=O)O)N1Cc2ccc(-c3ccc(NC(=O)C4C5CC6CC(C5)CC4C6)cc3)cc2C1=O (stereo partly drawn) [Example 190, (S)-2-(6-(4-(Adamantyl-2-carboxamido)phenyl)-1-oxoisoindolin-2-yl)-3-methylbutanoic acid]
16 | 10 to 50 |  | CC(C)[C@@H](C(=O)O)N1Cc2ccc(-c3ccc(NS(=O)(=O)C(C)C)cc3)cc2C1=O [Example 96, (S)-3-Methyl-2-(6-(4-(1-methylethylsulfonamido)phenyl)-1-oxoisoindolin-2-yl)butanoic acid]
17 | 10 to 50 |  | CC(C)[C@@H](C(=O)O)N1Cc2ccc(-c3ccc(NC(=O)c4ccc(Cl)cc4Cl)cc3)cc2C1=O [Example 134, (S)-2-(6-(4-(2,4-Dichlorobenzamido)phenyl)-1-oxoisoindolin-2-yl)-3-methyl butanoic acid]
18 | > 50 |  | CC(C)[C@@H](C(=O)O)N1Cc2ccc(-c3ccc(NC(=O)c4ccc5c(c4)OCO5)cc3)cc2C1=O [Example 128, (S)-2-(6-(4-(Benzo[d][1,3]dioxole-5-carboxamido)phenyl)-1-oxoisoindolin-2-yl)-3-methylbutanoic acid]
19 | > 50 |  | Cc1cc(C(=O)Nc2ccc(-c3ccc4c(c3)C(=O)N([C@H](C(=O)O)C(C)C)C4)cc2)ccc1F [Example 162, (S)-2-(6-(4-(4-Fluoro-3-methylbenzamido)phenyl)-1-oxoisoindolin-2-yl)-3-methyl butanoic acid]
20 | 10 to 50 |  | CC(C)[C@@H](C(=O)O)N1Cc2cc(-c3ccc(NS(=O)(=O)c4ccc(C(F)(F)F)cc4)cc3)ccc2C1=O [Example 299, (S)-3-Methyl-2-(1-oxo-5-(4-(4-(trifluoromethyl)phenylsulfonamido)phenyl)isoindolin-2-yl)butanoic acid]
21 | 10 to 50 |  | COc1ccc(S(=O)(=O)Nc2ccc(-c3ccc4c(c3)C(=O)N([C@H](C(=O)O)C(C)C)C4)cc2)cc1 [Example 90, (S)-2-(6-(4-(4-Methoxyphenylsulfonamido)phenyl)-1-oxoisoindolin-2-yl)-3-methylbutanoic acid]
22 | > 50 |  | Cc1ccc(NC(=O)Nc2ccc(-c3ccc4c(c3)CN([C@H](C(=O)O)C(C)C)C4=O)cc2)cc1 [Example 241, (S)-3-Methyl-2-(1-oxo-5-(4-(3-p-tolylureido)phenyl)isoindolin-2-yl)butanoic acid]
23 | 10 to 50 |  | O=C(Nc1ccc(-c2ccc3c(c2)CN([C@H](C(=O)O)c2ccccc2)C3=O)cc1)Nc1cccc(C(F)(F)F)c1 [Example 373, (S)-2-(1-Oxo-5-(4-(3-(3-(trifluoromethyl)phenyl)ureido)phenyl)isoindolin-2-yl)-2-phenylacetic acid]
24 | 10 to 50 |  | CC(C)[C@@H](C(=O)O)N1Cc2ccc(-c3ccc(NC(=O)c4nnc(-c5ccccc5)[nH]4)cc3)cc2C1=O [Example 629, (S)-3-Methyl-2-(1-oxo-6-(4-(5-phenyl-4H-1,2,4-triazole-3-carboxamido)phenyl)isoindolin-2-yl)butanoic acid]
25 | 10 to 50 |  | COc1cccc(NC(=O)Nc2ccc(-c3ccc4c(c3)C(=O)N([C@H](C(=O)O)C(C)C)C4)cc2)c1 [Example 26, (S)-2-(6-(4-(3-(3-Methoxyphenyl)ureido)phenyl)-1-oxoisoindolin-2-yl)-3-methyl butanoic acid]
26 |  | + (10-50% Inhibition) | O=C(Nc1ccc(-c2ccc3c(c2)C(=O)N(C24C[C@@H]5C[C@@H](CC(C(=O)O)(C5)C2)C4)C3)cc1)c1ccc(Cl)cc1 [Example 569, (1r,3s,5R,7S)-3-(6-(4-(4-Chlorobenzamido)phenyl)-1-oxoisoindolin-2-yl)adamantane-1-carboxylic acid]
27 | > 50 |  | CC(C)[C@@H](C(=O)O)N1Cc2ccc(-c3ccc(NC(=O)c4ccc5ccccc5c4)cc3)cc2C1=O [Example 122, (S)-2-(6-(4-(2-Naphthamido)phenyl)-1-oxoisoindolin-2-yl)-3-methylbutanoic acid]

Row | Molecule | inhibition at 1 µM [%] | % Inhibition of hDGAT1
28 | CCCCOc1ccc(C(=O)Nc2ccc(-c3ccc4c(c3)C(=O)N([C@H](C(=O)O)C(C)C)C4)nc2)cc1 [Example 412, (S)-2-(6-(5-(4-Butoxybenzamido)pyridin-2-yl)-1-oxoisoindolin-2-yl)-3-methylbutanoic acid] | > 50 | 
29 | CC(C)[C@@H](C(=O)O)N1Cc2ccc(-c3cnc(NC(=O)c4ccc(-c5ccccc5)cc4)cn3)cc2C1=O [Example 507, (S)-2-(6-(5-Biphenyl-4-ylcarboxamidopyrazin-2-yl)-1-oxoisoindolin-2-yl)-3-methylbutanoic acid] |  | ++ (>50% Inhibition)
30 | O=C(Nc1ccc(-c2ccc3c(c2)C(=O)N(C2(C(=O)O)CCCC2)C3)cc1)c1ccc(-c2ccccc2)cc1 [Example 529, 1-(6-(4-([1,1′-Biphenyl]-4-ylcarboxamido)phenyl)-1-oxoisoindolin-2-yl)cyclopentane carboxylic acid] |  | ++ (>50% Inhibition)
31 | CCCCOc1ccc(C(=O)Nc2cnc(-c3ccc4c(c3)C(=O)N([C@H](C(=O)O)C(C)C)C4)cn2)cc1 [Example 509, (S)-2-(6-(5-(4-Butoxybenzamido)pyrazin-2-yl)-1-oxoisoindolin-2-yl)-3-methylbutanoic acid] | > 50 | 
